# Test results from patent publication US20130011845A1, “MICRORNA REGULATING THE INSULIN SIGNALING PATHWAY, AND METHOD FOR SCREENING MATERIAL FOR CONTROLLING THE ACTION OF A TARGET THEREOF” (SNU R & DB Foundation, priority 2009, published 2013).
# d = 2'-deoxy (DNA); r = 2'-OH (RNA)
# Key:
# TCF7L1 3′UTR = assay: dual-luciferase 3′UTR reporter assay, pAC-TCF7L1; assay type: cell-based; conditions: luciferase reporter with TCF7L1 3′UTR, human Hela cell lines; average of at least two independent experiments
# Method: (§1) In order to determine whether the target genes identified in Example 7 are in actuality targets of miR-8 and miR-200 family miRNAs, the inventors performed cloning. In other words, […] containing the miRNA target sites. Specifically, in order to obtain cDNAs of respective target genes, from drosophila S2 cell lines or human Hela cell lines, total RNA was extracted by using RNeasy mini kit (QIAGEN, US). 1 μg of total RNA and 1 μl of Oligo-dT (Invitrogen, US) were charged with up to 50 μl of distilled water, and placed into SuperScript First-Strand Synthesis System (Invitrogen, US), followed by RT-PCR reaction. Through the reaction at 65° C. for 6 min, at 4° C. for 5 min, at 42° C. for 60 min, at 95° C. for 5 min, and at 4° C. for 5 min, cDNA was synthesized. By using the cDNA (3˜5 μg) as template, and using a primer pair on respective genes noted in Table 3 and PCR Mastermix (Promega, US), PCR was performed on 3′UTR of ush, Lap1, CG8445, dbo, Lar, Ced-12, CG12333, cbt, FOG2, SEPT7, RIN2, SHC1, HOXB5, LF11, TCF7L1, ERBB21P, ELMO2, BAP1, WDR37, KLHL20, PTPRD, RASSF2 and VAC14 from among the target genes selected in Example 7. Herein, PCRP on atro as a drosophila control gene was also performed. After the reaction was completed, the PCR product on each gene's 3′UTR region was cleaved by each of the following restriction enzymes:
# (§2) Then, it was cloned into pAC5.1 luciferase vector (a kind gift of Elisa Izaurralde) cleaved by the same restriction enzymes so as to produce a reporter plasmid having a miR-8 or miR-200 family target sequence in luciferase gene's 3′UTR sequence.
# (§3) Reporter plasmids and renilla luciferase expression vectors (Promega, US), as noted in Table 4, and miRNAs of miR-200 family of miR-141, miR-200a (hsa-miR-200a, SEQ ID: 87: 5′-[…]-3′), miR-200b, miR-200c (has-miR-200c, SEQ ID: 88: 5′-[…]-3′) and miR-429, and miR-8 (dme-miR-8, SEQ ID: 89: 5′-[…]-3′) were bought from Samchonri and cotransfected into drosophila S2 cell lines or human Hela cell lines. Then, the activities of luciferase were measured through dual-luciferase assay (Promega, US) by a luminometer (Biorad). Then, 7 gene pairs that respond both to miR-8 and to mir-200 family miRNAs in Drosophila and human cells, respectively were identified (see FIG. 15).
# SHC1 3′UTR = assay: dual-luciferase 3′UTR reporter assay, pAC-SHC1; assay type: cell-based; conditions: luciferase reporter with SHC1 3′UTR, human Hela cell lines; average of at least two independent experiments
# Method: as §1, §2, §3
# KLF11 3′UTR = assay: dual-luciferase 3′UTR reporter assay, pAC-KLF11; assay type: cell-based; conditions: luciferase reporter with KLF11 3′UTR, human Hela cell lines; average of at least two independent experiments
# Method: as §1, §2, §3
# FOXO [1] = assay: FOXO luciferase reporter (pFK1tk-luc) assay in Hep3B cells; assay type: cell-based, human
# From the text: The inventors analyzed the effect of miR-200 miRNAs on the downstream transducers of Akt (see FIGS. 44 to 47). Because Akt represses FOXO activity, the inventors used a luciferase reporter plasmid (pFK1tk-luc) (Biggs, W H et al., 1999, Proc Natl Acad Sci USA 96, 7421-7426) containing eight FOXO-binding sites to determine the level of FOXO activity in cultured cells. Specifically, Hep3B cells were transfected with synthesized siGFP, miR-141, miR-200a, miR-200b, miR-200c, miR-429 or siFOG2 together with pFK1tk-luc vector, and then luciferase activity was measured in the same manner as described Example 8-2. Also, Hep3B cells were transfected with luciferase, or oligonucleotides having complementary sequence to miR-141, miR-200a, miR-200b, miR-200c or miR-429 together with pFK1tk-luc vector. Then, the luciferase activity was measured in the same manner as described above. Further, Hep3B cell lines were transfected with pCK-flag (empty vector) and pCK-FOG2 produced in Example 16-1, and the luciferase activity was measured in the same manner as described above. […] Further, treating the cells with miR-200 inhibitors elevated FOXO activity (see FIG. 46).
# RIN2 3′UTR = assay: dual-luciferase 3′UTR reporter assay, pAC-RIN2; assay type: cell-based; conditions: luciferase reporter with RIN2 3′UTR, human Hela cell lines; average of at least two independent experiments
# Method: as §1, §2, §3
# HOXB5 3′UTR = assay: dual-luciferase 3′UTR reporter assay, pAC-HOXB5; assay type: cell-based; conditions: luciferase reporter with HOXB5 3′UTR, human Hela cell lines; average of at least two independent experiments
# Method: as §1, §2, §3
# VAC14 3′UTR = assay: dual-luciferase 3′UTR reporter assay, pAC-VAC14; assay type: cell-based; conditions: luciferase reporter with VAC14 3′UTR, human Hela cell lines; average of at least two independent experiments
# Method: as §1, §2, §3
# BAP1 3′UTR = assay: dual-luciferase 3′UTR reporter assay, pAC-BAP1; assay type: cell-based; conditions: luciferase reporter with BAP1 3′UTR, human Hela cell lines; average of at least two independent experiments
# Method: as §1, §2, §3
# ERBB2IP 3′UTR = assay: dual-luciferase 3′UTR reporter assay, pAC-ERBB2IP; assay type: cell-based; conditions: luciferase reporter with ERBB2IP 3′UTR, human Hela cell lines; average of at least two independent experiments
# Method: as §1, §2, §3
# FOG2 3′UTR = assay: dual-luciferase 3′UTR reporter assay, pAC-FOG2; assay type: cell-based; conditions: luciferase reporter with FOG2 3′UTR, human Hela cell lines; average of at least two independent experiments
# Method: as §1, §2, §3
# SEPT7 3′UTR = assay: dual-luciferase 3′UTR reporter assay, pAC-SEPT7; assay type: cell-based; conditions: luciferase reporter with SEPT7 3′UTR, human Hela cell lines; average of at least two independent experiments
# Method: as §1, §2, §3
# KLHL20 3′UTR = assay: dual-luciferase 3′UTR reporter assay, pAC-KLHL20; assay type: cell-based; conditions: luciferase reporter with KLHL20 3′UTR, human Hela cell lines; average of at least two independent experiments
# Method: as §1, §2, §3
# ELMO2 3′UTR = assay: dual-luciferase 3′UTR reporter assay, pAC-ELMO2; assay type: cell-based; conditions: luciferase reporter with ELMO2 3′UTR, human Hela cell lines; average of at least two independent experiments
# Method: as §1, §2, §3
# PTPRD 3′UTR = assay: dual-luciferase 3′UTR reporter assay, pAC-PTPRD; assay type: cell-based; conditions: luciferase reporter with PTPRD 3′UTR, human Hela cell lines; average of at least two independent experiments
# Method: as §1, §2, §3
# RASSF2 3′UTR = assay: dual-luciferase 3′UTR reporter assay, pAC-RASSF2; assay type: cell-based; conditions: luciferase reporter with RASSF2 3′UTR, human Hela cell lines; average of at least two independent experiments
# Method: as §1, §2, §3
# Hep3B cells = assay: MTT cellular viability assay; assay type: cell-based, human; conditions: Hep3B cells transfected with 30 nM
# Method: Because stimulation of PI3K and Akt is known to facilitate cell proliferation and antagonize apoptosis (Pollak, 2008), the inventors measured cellular viability with the MTT (3-(4,5-dimethylthiazol-2-yl)-2,5-diphenyltetrazolium bromide) assay in Hep3B cells. Specifically, Hep3B cells were plated in a 96-well plate, and transfected with 30 nM of synthesized siGFP, miR-141, miR-200a, miR-200b, miR-200c, miR-429 or siFOG2. Then, to the plate, 50 μl of MTT solution (2 mg/ml) (Promega, US) was added per each well, followed by culturing at 37 °C for 1 hour. Then, each well was added with 150 μl of DMSO, and measured by a microplate reader (Bio-rad, US) at a wavelength of 590 nm. Also, Hep3B cells were transfected with 200 nM of luciferase, or 200 nM of oligonucleotides having complementary sequences to miR-141, miR-200a, miR-200b, miR-200c or miR-429, and then were subjected to MTT assay in the same manner as described above.
# WDR37 3′UTR = assay: dual-luciferase 3′UTR reporter assay, pAC-WDR37; assay type: cell-based; conditions: luciferase reporter with WDR37 3′UTR, human Hela cell lines; average of at least two independent experiments
# Method: as §1, §2, §3
# FOXO [2] = assay: FOXO activity in Huh7 cell lines transfected with miR-200 and treated with kinase inhibitors; assay type: cell-based, human; conditions: Huh7 cell lines transfected with miR-141/200a or miR-200b/c/429, inhibitor at 10 μM
# Akt = assay: western blotting of p-Akt in FAO cell lines; assay type: cell-based; conditions: compared to siGFP
# PI3K = biological target: T1, PI3K (Homo sapiens, UniProt P27986); assay: in vitro PI3K assay on immunoprecipitated PI3K complex; assay type: biochemical; conditions: recombinant protein added to the immunoprecipitated PI3K complex
# T1 construct: endogenous in cells; host or cells: Hep3B cell lysate (method paragraph)
# p85α = biological target: T2, p85α (Homo sapiens, UniProt P27986); assay: in vitro binding assay with GST-fused recombinant p85α; conditions: purified GST-fused recombinant p85α protein
# T2 construct: GST (N); made in house; host or cells: E. coli BL21
# From the text: In order to test whether FOG2 directly binds to p85α, the inventors cleaved PCR product on p85α gene (obtained from Example 20-1) by BamHI and EcoRI, and cloned into pGEX5X-1 vector (GE Healthcare, US) cleaved by the same restriction enzymes so as to produce GST-fused recombinant p85α expression vector. The expression vector was transfected into BL21 (Promega, US) through electroporation, and according to a known method, the […] protein was expressed and purified from bacteria (Studier, F. W. et al., 1986, J. Mol. Biol. 189, 113-130), and was used in the following in vitro binding assay, along with purified GST-fused recombinant p85α protein.
# T2 sequence (P27986 whole entry, the tested form may be a part): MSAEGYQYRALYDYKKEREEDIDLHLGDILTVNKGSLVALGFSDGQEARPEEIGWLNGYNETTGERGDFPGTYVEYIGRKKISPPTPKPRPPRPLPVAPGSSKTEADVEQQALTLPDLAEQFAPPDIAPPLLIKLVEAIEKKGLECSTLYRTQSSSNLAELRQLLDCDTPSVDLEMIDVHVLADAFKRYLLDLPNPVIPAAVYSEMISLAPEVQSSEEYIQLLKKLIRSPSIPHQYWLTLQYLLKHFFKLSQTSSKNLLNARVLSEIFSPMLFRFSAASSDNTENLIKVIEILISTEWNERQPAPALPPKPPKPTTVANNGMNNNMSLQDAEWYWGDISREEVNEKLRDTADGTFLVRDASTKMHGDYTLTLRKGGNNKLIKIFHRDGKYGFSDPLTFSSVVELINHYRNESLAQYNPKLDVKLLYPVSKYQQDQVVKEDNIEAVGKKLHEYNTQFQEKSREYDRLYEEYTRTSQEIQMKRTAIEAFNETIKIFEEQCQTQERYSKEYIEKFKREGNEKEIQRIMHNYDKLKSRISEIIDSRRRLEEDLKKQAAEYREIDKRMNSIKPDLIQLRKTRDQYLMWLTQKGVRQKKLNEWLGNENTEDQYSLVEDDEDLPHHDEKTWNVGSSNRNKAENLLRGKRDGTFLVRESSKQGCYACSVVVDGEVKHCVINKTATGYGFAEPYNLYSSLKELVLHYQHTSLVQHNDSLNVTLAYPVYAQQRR
# T1 sequence (P27986 whole entry): as the sequence (P27986 whole entry, the tested form may be a part) above
molecule,measurement,setting,value
5′-UAAUACUGCCGGGUAAUGAUGGA-3′ [miR-200c],"Represion fold, TCF7L1",TCF7L1 3′UTR,0.80 fold
same,"Represion fold, SHC1",SHC1 3′UTR,1.85 fold
same,"Represion fold, KLF11",KLF11 3′UTR,1.07 fold
same,"FOXO activity (activity of luciferase, pFK1tk-luc)",FOXO [1],significantly repressed
same,"Represion fold, RIN2",RIN2 3′UTR,1.30 fold
same,"Represion fold, HOXB5",HOXB5 3′UTR,0.87 fold
same,"Represion fold, VAC14",VAC14 3′UTR,1.20 fold
same,"Represion fold, BAP1",BAP1 3′UTR,0.74 fold
same,"Represion fold, ERBB2IP",ERBB2IP 3′UTR,0.59 fold
same,"Represion fold, FOG2",FOG2 3′UTR,0.32 fold
same,"Represion fold, SEPT7",SEPT7 3′UTR,1.29 fold
same,"Represion fold, KLHL20",KLHL20 3′UTR,0.69 fold
same,"Represion fold, ELMO2",ELMO2 3′UTR,0.86 fold
same,"Represion fold, PTPRD",PTPRD 3′UTR,0.97 fold
same,"Represion fold, RASSF2",RASSF2 3′UTR,0.99 fold
same,cell viability (MTT),Hep3B cells,increased cell viability
same,"Represion fold, WDR37",WDR37 3′UTR,1.21 fold
N#CC(=C(/N)Sc1ccccc1N)/C(C#N)=C(\N)Sc1ccccc1N [U0126],miR-200-mediated FOXO regulation (FOXO activity),FOXO [2],did not affect miR-200-mediated FOXO regulation
"5′-UUAUUCAAGUCCAUCUUCCdTdT-3′ (UUAUUCAAGUCCAUCUUCCTT; siRNA; sugars from the 5' end r19 d2, backbone not given here) [siFOG2]",p-Akt levels,Akt,increased p-Akt levels
same,"FOXO activity (activity of luciferase, pFK1tk-luc)",FOXO [1],significantly repressed
O=C1c2ccccc2-c2n[nH]c3cccc1c23 [SB600125],miR-200-mediated FOXO regulation (FOXO activity),FOXO [2],did not affect miR-200-mediated FOXO regulation
"recombinant FOG2 protein: recombinant FOG2 protein containing the middle region of FOG2 (413-789 aa), expressed and purified from bacteria (protein, UniProt Q8WW38 413-789, looked up, fragment) DLLTRSELPQSQKAMQTKDASSDTELDKCEKKTQLFLTNQRPEIQPTTNKQSFSYTKIKSEPSSPRLASSPVQPNIGPSFPVGPFLSQFSFPQDITMVPQASEILAKMSELVHRRLRHGSSSYPPVIYSPLMPKGATCFECNITFNNLDNYLVHKKHYCSSRWQQMAKSPEFPSVSEKMPEALSPNTGQTSINLLNPAAHSADPENPLLQTSCINSSTVLDLIGPNGKGHDKDFSTQTKKLSTSSNNDDKINGKPVDVKNPSVPLVDGESDPNKTTCEACNITFSRHETYMVHKQYYCATRHDPPLKRSASNKVPAMQRTMRTRKRRKMYEMCLPEQEQRPPLVQQRFLDVANLNNPCTSTQEPTEGLGECYHPRCD",PI3K activity,PI3K,significantly inhibited the PI3K activity
same,binding to recombinant p85α,p85α,specifically bound to recombinant p85α
